# Assay results from EP2186515A1, “PHARMACEUTICAL COMPOSITION COMPRISING THE COMBINATION OF AN ANTI-DEPRESSIVE AGENT AND AN ANSIOLYTIC AGENT FOR CONTROL AND TREATMENT OF DEPRESSIVE DISORDERS” (World Trade Import-Export, WTIE A.G., priority 2007, dated 2009).
# Tests used:
# [1] = metabolites of Alprazolam; cited from earlier work
# [2] = cited from earlier work
# CYP2D6 isoenzyme = CYP2D6 isoenzyme (Homo sapiens, UniProt P10635); conditions: cited from earlier work; for activity over CYP2D6 isoenzyme compared with fluoxetine and its active metabolite: relative to fluoxetine and its active metabolite
# [3] = test system: serotonin reuptake process; conditions: relative to Sertraline; cited from earlier work
# [4] = human, in vivo, cited from earlier work
# human serum proteins = conditions: cited from earlier work
# clinical = conditions: human, in vivo, po
# From the text: We performed a study on 30 healthy volunteer subjects using a double-blind design. Subjects with ages between 18 and 55 years were recruited. Exclusion criteria were: the use of substances with activity in CYP3A4 (quinidines), inhibitors (erythromycin), inducers (carbamazepines); consumption of illegal drugs (cocaine, heroin, tetrahydrocannabinoids); cigarettes, oral contraceptives, pregnancy, nursing, renal or liver disease history, obesity (>30% above ideal weight), abnormal biochemistry (electrolytes, liver or renal function) or hematologic (full count of blood cells).
# After medicament delivery in each group, blood samples were taken at 0.5, 1, 1.5, 2, 2.5, 3, 4, 6, 8, 24 y 32 hours.
# [5] = in vivo; cited from earlier work
# Sequence of CYP2D6 isoenzyme (P10635 whole entry): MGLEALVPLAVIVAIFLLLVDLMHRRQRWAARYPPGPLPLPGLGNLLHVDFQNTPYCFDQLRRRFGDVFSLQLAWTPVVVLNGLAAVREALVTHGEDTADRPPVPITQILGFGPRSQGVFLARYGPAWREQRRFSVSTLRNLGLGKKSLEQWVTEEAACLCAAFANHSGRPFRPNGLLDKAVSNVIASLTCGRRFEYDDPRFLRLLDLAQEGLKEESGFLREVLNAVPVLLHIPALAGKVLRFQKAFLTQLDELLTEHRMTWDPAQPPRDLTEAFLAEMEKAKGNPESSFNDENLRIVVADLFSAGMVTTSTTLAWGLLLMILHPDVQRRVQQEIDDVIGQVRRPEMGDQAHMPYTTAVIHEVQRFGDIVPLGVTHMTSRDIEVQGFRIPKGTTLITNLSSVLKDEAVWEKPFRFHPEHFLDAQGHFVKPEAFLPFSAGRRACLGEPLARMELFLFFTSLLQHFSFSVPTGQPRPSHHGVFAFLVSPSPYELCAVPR
smiles,measurement,setting,value
OCc1nnc2n1-c1ccc(Cl)cc1C(c1ccccc1)=NC2 [alpha-hydroxy-Alprazolam],biological activity compared with therapeutic activity of Alprazolam,[1],about one half
CN[C@H]1CC[C@@H](c2ccc(Cl)c(Cl)c2)c2ccccc21 [Sertraline],variation coefficient of plasma concentrations,[2]; after delivering fixed doses,38%
same,dose recovered in urine and feces,"[2]; oral administration, after seven days, 10080 min",88%
same,Plasma half-life,[2]; plasma,22 to 30 h
same,in vitro inhibition of CYP2D6 isoenzyme,CYP2D6 isoenzyme; in vitro,weak in vitro inhibition
same,activity over CYP2D6 isoenzyme compared with fluoxetine and its active metabolite,CYP2D6 isoenzyme,five to ten times lower
same,effect of Sertraline on Alprazolam kinetics,the two drugs administered in combination,does not significantly alter
N[C@H]1CC[C@@H](c2ccc(Cl)c(Cl)c2)c2ccccc21 [DemethylSertraline],activity over CYP2D6 isoenzyme compared with fluoxetine and its active metabolite,CYP2D6 isoenzyme,five to ten times lower
same,activity over serotonin reuptake process compared with unaltered drug,[3],eight times lower
O=C(c1ccccc1)c1ccccc1 [benzophenone],biological activity compared with therapeutic activity of Alprazolam,[1],essentially inactive
Cc1nnc2n1-c1ccc(Cl)cc1C(c1ccccc1)=NC2 [Alprazolam],time to maximum plasma concentrations,[4]; po,1 to 2 h
same,"Plasma clearance half-life, range",[4],6.3 to 26.9 h
same,attached to human serum proteins,human serum proteins,80%
same,AUC(0-inf),clinical,167 ± 53.1 ng·h/mL
same,Cmax,clinical,12.6 ± 7.5 ng/mL
same,Tmax,clinical,2.6 ± 1.4 h
same,concentrations in steady state related with toxicity,[5],higher than 60 ng/mL
same,t1/2 (Clearance half-life),"human, in vivo, po",11.3 ± 2.2 h
